Test results reported in patent US7232842B2, “Kinase inhibitors and associated pharmaceutical compositions and methods of use” (Board of Trustees of the LeLand Stanford Junior University, priority 2003, dated 2007).

What was measured:
[1] = system: Protein kinase C, as a mixture of isozymes; assay: PKC activity assay, 32P transfer from [γ-32P]ATP to histone III-S; format: biochemical, rat; settings: for inhibition at 10 μM: 10 μM inhibitor; for IC50: histone III-S substrate, 15 min, three trials per concentration
Excerpt: In practicing various aspects of the present invention, compounds in accordance with the invention can be tested for a biological activity of interest using any assay protocol that is predictive of activity in vivo. For example, a variety of convenient assay protocols are available that are generally predictive of PKC inhibitory activity in vivo. In one approach, PKC inhibitory activity can be assessed using the PKC assay described in Example 9 (also described by Toullec et al. (1991) J. Biol. Chem. 266:15771). In that assay, the PKC was derived, as a mixture of isozymes, from rat brains, and activity was determined by incorporation of ^32P radiolabeled phosphate, derived from [γ-^32P]-ATP, onto a PKC substrate. Another assay for assessing PKC inhibitory activity is described in Example 10; see also U.S. Patent Application Publication No. 2002/0137789 A1 to Wender et al. In this assay, Ki values are determined for potential inhibitors based on competition with radiolabeled phorbol 12,13-dibutyrate for binding to a mixture of PKC isozymes.
Materials used: Phosphatidyl serine and 1,2 sn-dioleylglycerol were obtained from Serdary Research Laboratories. Protein kinase C, as a mixture of isozymes, was obtained in isolated and purified form from Prof. Daria Mochley-Rosen and Tamar Lion (Stanford University, Department of Molecular Pharmacology).
PKC activity was assayed by measuring ^32Pi transferred from [γ-^32P]ATP to histone III-S (Sigma). The reaction mixture (100 μL) included 20 mM Tris-HCl (pH 7.5) (30 μL), 10 mM CaCl2 in 20 mM Tris-HCl (10 μL), a sonicated suspension of 2.4 mg/mL phosphatidylserine and 80 μg/mL 1,2-diacylglycerol in 20 mM Tris-HCl (10 μL), a PKC preparation of 4.5 mg/mL total PKC with 5–9 U activity/mL relative to histone III-S (10 μL), a solution of 0.35 mg/mL histone III-S (Sigma) in 20 mM Tris-HCl (10 μL), and a solution of the inhibitor at various concentrations in 20 mM Tris-HCl containing <1% DMSO (10 μL). The reaction was started by the addition of a solution containing 27 μL of 3.75 mM ATP (non-radiolabeled), 100 μL 1.0 M MgCl2, and 1.3 μL of […] [γ-^32P]ATP, and 872 μL of 20 mM Tris-HCl (pH 7.5) (20 μL). After 15 min, the reaction was stopped by the addition of 30 μL of 200 mM EDTA and 200 mM ATP (non-radiolabeled). The reaction mixture was adsorbed onto phosphocellulose paper squares (Whatman P81), and allowed to dry for 5 min. The phosphocellulose paper squares were then washed with EtOH (3×1 min). The total protein phosphorylation was quantitated by scintillation counting. Counts per minute were averaged among three trials at each concentration.

[2] = system: PKC; settings: Tamaoki et al. (1986); cited from earlier work
[3] = system: five of the PKC isoforms; settings: cited from earlier work

| Compound | melting point | inhibition at 10 μM [1] | IC50 [1] [µM] | IC50 [2] [µM] | IC50 [3] [µM] |
| --- | --- | --- | --- | --- | --- |
| CN1C(=O)c2c3c(c4[nH]c5ccccc5c4c2C1=O)CCC(=O)CC3 [Compound 10] | 309 to 310 °C (dec.) | ^A36% inhibition at 10 μM | > 10 | – | – |
| O=C1CCc2c3c(c4c([nH]c5ccccc54)c2CC1)C(=O)NC3=O [Compound 11] | – | – | 3.6 | – | – |
| CN1C(=O)c2c3c(c4c(c2C1=O)c1ccccc1n4CCCNC(=O)OC(C)(C)C)CCC(O)CC3 (stereo not drawn) [Compound 14] | – | ^B40% inhibition at 10 μM | > 10 | – | – |
| CN[C@H]1CC2(C)OC(C)([C@H]1OC)n1c3ccccc3c3c4c(c5c6ccccc6n2c5c31)C(=O)NC4 (stereo partly drawn) [Staurosporin] | – | – | – | 0.0027 | < 0.01 |
| O=C1NC(=O)c2c1c1c(c3[nH]c4ccccc4c23)CCC(O)CC1 (stereo not drawn) [Compound 12] | – | – | 4.5 | – | – |
